# According to patent US6642224B1, “Diazepan derivatives or salts thereof” (Yamanouchi Pharmaceutical Co., Ltd., priority 2000, dated 2003):
# What was measured:
# [1] = molecular target: T1, human factor Xa (Homo sapiens, UniProt P00742); test: Test on measurement of coagulation time by human activated blood coagulation factor X; format: biochemical; conditions: human blood plasma; concentration by which the coagulation time is prolonged 2-fold
# T1 construct: purchased Enzyme Research Labs
# Experimental: 1) Test on Measurement of Coagulation Time by Human Activated Blood Coagulation Factor X
# To 90 μl of human blood plasma were added 10 μl of a drug or a physiological saline and 50 μl of human factor Xa (Enzyme Research Labs), incubation was carried out at 37° C. for 3 minutes, 100 μl of 20 mM CaCl2 previously warmed at 37° C. were added and the time until coagulation was measured by a coagulo-meter (KC10 of Amelung). With regard to the human blood plasma, each 45 ml of blood were collected from vein of elbow of six healthy persons using a syringe in which 5 ml of 3.8% sodium citrate were contained and centrifuged at 4° C. for 15 minutes at 3,000 rpm and the separated blood plasma was pooled and frozen, then thawed before use. With regard to the human factor Xa, the concentration by which the coagulation time when a physiological saline (control) was added was about 30 to 40 seconds was selected. A CT2 value (concentration by which the coagulation time is prolonged to an extent of 2-fold) was determined by plotting the drug concentrations and relative value (fold) of the coagulation time to the control, followed by subjecting to linear regression.
# [2] = molecular target: T2, bovine thrombin (Bos taurus, UniProt P00735); test: Test on measurement of coagulation time by bovine thrombin; format: biochemical; conditions: human blood plasma; concentration by which the coagulation time is prolonged 2-fold
# T2 construct: 500 units of Thrombin (derived from bovine; Mochida Pharmaceutical); purchased Mochida Pharmaceutical
# Experimental: 2) Test on Measurement of Coagulation Time by Bovine Thrombin
# To 50 μl of human blood plasma was added 50 μl of a drug or a physiological saline, incubation was carried out at 37° C. for 3 minutes, 50 μl of thrombin (500 units of Thrombin (derived from bovine; Mochida Pharmaceutical) previously warmed at 37° C. was added and the time until coagulation was measured by a coagulo-meter (KC10 of Amelung). With regard to the human blood plasma, each 45 ml of blood was collected from vein of elbow of six healthy persons using a syringe in which 5 ml of 3.8% sodium citrate was contained and centrifuged at 4° C. for 15 minutes at 3,000 rpm and the separated blood plasma was pooled and frozen, then thawed before use. With regard to the thrombin, the concentration by which the coagulation time when a physiological saline (control) was added was about 20 seconds was selected. A CT2 value (concentration by which the coagulation time is prolonged to an extent of 2-fold) was determined by plotting the drug concentrations and relative value (fold) of the coagulation time to the control, followed by subjecting to linear regression.
# [3] = Test on ex vivo measurement of coagulation time in cynomolgus monkeys (oral administration); conditions: male cynomolgus monkeys, po 10 mg/kg, as compared with control (plasma without administration of a drug)
# Experimental: (§1) a) Extrinsic Coagulation Time (PT)
# (§2) Ortho Brain Thromboplastin (54 mg/vial; a freeze-dried preparation; Ortho-Clinical Diagnostics) was dissolved in 2.5 ml of Milli-Q water and preliminarily warmed at 37° C. The above-separated blood plasma (50 μl) was warmed at 37° C. for 1 minute, 50 μl of the above-mentioned thromboplastin solution was added and the coagulation time was measured. Amelung KC10A was used for the measurement of the coagulation time.
# (§3) b) Intrinsic Coagulation Time (APTT)
# (§4) To 50 μl of the above blood plasma was added 50 μl of Hemoliance Thrombosil I (DIA-IATRON), the mixture was warmed at 37° C. for 3 minutes, 50 μl of a 20 mM CaCl2 solution previously warmed at 37° C. were added and the coagulation time was measured. KC10A manufactured by Amelung was used for the measurement of the coagulation time.
# 5) Test on ex vivo Measurement of Coagulation Time in Cynomolgus Monkeys (Oral Administration) […]
# [4] = Test on ex vivo measurement of coagulation time in mice (oral administration); conditions: male ICR mouse, po 100 mg/kg, as compared with control (plasma without administration of a drug)
# Experimental: 4) Test on ex vivo Measurement of Coagulation Time in Mice (Oral Administration)
# Using the resulting blood plasma, extrinsic coagulation time (PT) and intrinsic coagulation time (APTT) were measured in accordance with the following methods a) and b).
# as §1, §2, §3, §4
# Dose dependency of and time-course changes in the anticoagulation action were also examined by changing the administration dose or the blood collection time.
# T1 sequence (P00742 235-488 limits assumed): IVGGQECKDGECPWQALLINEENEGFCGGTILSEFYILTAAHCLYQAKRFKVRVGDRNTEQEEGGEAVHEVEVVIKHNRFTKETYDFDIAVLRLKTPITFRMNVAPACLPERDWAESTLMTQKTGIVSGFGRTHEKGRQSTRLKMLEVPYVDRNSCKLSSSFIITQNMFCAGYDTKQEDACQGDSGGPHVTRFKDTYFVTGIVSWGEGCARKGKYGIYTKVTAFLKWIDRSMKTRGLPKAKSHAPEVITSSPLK
# T1 sequence (P00742 41-179 partner limits assumed): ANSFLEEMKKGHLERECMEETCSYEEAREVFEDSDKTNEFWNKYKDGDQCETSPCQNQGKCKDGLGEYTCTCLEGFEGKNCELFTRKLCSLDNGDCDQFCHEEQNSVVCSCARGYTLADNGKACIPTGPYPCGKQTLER
Compound,Test on measurement of coagulation time by human activated blood coagulation factor X (CT2) [1] [µM],Test on measurement of coagulation time by bovine thrombin (CT2) [2] [µM],prolongation of extrinsic coagulation time (PT) [3],prolongation of intrinsic coagulation time (APTT) [3],prolongation of extrinsic coagulation time (PT) [4],prolongation of intrinsic coagulation time (APTT) [4]
"COc1ccc(C(=O)Nc2ccccc2NC(=O)c2ccc(C3CCNCC3)cc2)cc1 [Control 1, reference compound]",17.0,>100,–,–,–,–
"COc1ccc(C(=O)Nc2ccc(O)cc2NC(=O)c2ccc(N(C)C)cc2)cc1 [Control 2, reference compound]",11.3,–,–,–,–,–
CN1CCCN(c2ccc(C(=O)Nc3cc(C(=O)O)ccc3COc3cccc(C(=N)N)c3)cc2)CC1.Cl [Example 3],–,–,twice or more,twice or more,twice or more,twice or more
CN1CCCN(c2ccc(C(=O)Nc3cc(C(=O)O)ccc3CCc3cccc(C(=N)N)c3)cc2)CC1.Cl [Example 5],0.10,>100,–,–,–,–
"COc1ccc(NC(=O)c2cccc(O)c2NC(=O)c2ccc(N3CCCN(C)CC3)cc2)cc1.Cl [Example 9, 3-hydroxy-4′-methoxy-2-{[4-(4-methyl-1,4-diazapan-1-yl)benzoyl]amino}benzanilide hydrochloride]",1.71,>100,–,–,–,–
CN1CCCN(c2ccc(C(=O)Nc3c(O)cccc3C(=O)Nc3ccc(F)cc3)cc2)CC1.Cl [Example 11],1.33,>100,–,–,–,–
COc1ccc(C(=O)Nc2cccc(O)c2NC(=O)c2ccc(N3CCCN(c4ccncc4)CC3)cc2)cc1.Cl [Example 32],1.41,>100,–,–,–,–
"COc1ccc(C(=O)Nc2cccc(OCCO)c2NC(=O)c2ccc(N3CCCN(C)CC3)cc2)cc1.Cl [Example 39, 3-(2-hydroxyethoxy)-N^1-(4-methoxybenzoyl)-N^2-[4-(4-methyl-1,4-diazepan-1-yl)benzoyl]-1,2-phenylenediamine hydrochloride]",1.53,>100,–,–,–,–
